Experimental data as given in patent US10065963B2 (Incyte Corporation, priority 2015, dated 2018).
Structures can show the parent of a compound that is named as a salt. Where two headings read alike, the source gives them in different places.

What was measured:
[1] = test system: Phosphorylated Ribosomal Protein S6 (RPS6) in THP-1 cells; experiment: THP-1 RPS6 ELISA assay; type: cell-based, human; conditions: 10 nM MCP-1, read-out: PI3Kγ_THP1_RPS6_ELISA IC50
[2] = target: PI3Kδ (p110δ/p85α) Recombinant Human Protein (Homo sapiens (Human), UniProt O00329); experiment: PI3Kδ scintillation proximity assay; type: biochemical; conditions: 2 μM ATP, 20 μM PIP2
PI3Kδ (p110δ/p85α) Recombinant Human Protein, sequence (O00329 whole entry): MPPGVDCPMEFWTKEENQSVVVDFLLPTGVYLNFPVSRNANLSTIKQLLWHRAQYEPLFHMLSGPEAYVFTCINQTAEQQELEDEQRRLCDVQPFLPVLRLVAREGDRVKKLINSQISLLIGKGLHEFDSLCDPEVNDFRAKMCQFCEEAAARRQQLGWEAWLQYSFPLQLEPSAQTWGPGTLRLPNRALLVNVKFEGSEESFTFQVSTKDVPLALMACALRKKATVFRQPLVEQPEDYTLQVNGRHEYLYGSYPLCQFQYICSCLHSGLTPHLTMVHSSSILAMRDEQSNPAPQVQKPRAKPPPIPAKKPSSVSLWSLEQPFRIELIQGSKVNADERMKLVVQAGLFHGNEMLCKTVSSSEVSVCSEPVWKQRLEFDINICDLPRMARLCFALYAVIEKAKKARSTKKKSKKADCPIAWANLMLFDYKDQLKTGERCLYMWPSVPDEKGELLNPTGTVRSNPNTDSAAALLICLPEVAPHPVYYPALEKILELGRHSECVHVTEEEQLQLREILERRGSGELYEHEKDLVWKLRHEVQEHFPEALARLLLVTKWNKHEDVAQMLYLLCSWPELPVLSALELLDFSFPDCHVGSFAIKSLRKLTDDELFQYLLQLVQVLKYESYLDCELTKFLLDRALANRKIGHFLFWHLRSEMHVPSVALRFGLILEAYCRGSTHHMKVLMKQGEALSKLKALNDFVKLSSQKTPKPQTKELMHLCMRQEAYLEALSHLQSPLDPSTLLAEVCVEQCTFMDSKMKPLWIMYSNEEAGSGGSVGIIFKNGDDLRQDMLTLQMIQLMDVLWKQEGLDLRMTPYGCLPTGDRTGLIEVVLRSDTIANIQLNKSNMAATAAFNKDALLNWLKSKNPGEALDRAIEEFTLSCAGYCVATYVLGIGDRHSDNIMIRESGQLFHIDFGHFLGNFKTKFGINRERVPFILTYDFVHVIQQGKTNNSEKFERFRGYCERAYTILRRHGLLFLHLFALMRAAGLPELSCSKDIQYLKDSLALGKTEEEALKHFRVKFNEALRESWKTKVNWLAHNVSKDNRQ
PI3Kδ (p110δ/p85α) Recombinant Human Protein, sequence (P27986 whole entry partner): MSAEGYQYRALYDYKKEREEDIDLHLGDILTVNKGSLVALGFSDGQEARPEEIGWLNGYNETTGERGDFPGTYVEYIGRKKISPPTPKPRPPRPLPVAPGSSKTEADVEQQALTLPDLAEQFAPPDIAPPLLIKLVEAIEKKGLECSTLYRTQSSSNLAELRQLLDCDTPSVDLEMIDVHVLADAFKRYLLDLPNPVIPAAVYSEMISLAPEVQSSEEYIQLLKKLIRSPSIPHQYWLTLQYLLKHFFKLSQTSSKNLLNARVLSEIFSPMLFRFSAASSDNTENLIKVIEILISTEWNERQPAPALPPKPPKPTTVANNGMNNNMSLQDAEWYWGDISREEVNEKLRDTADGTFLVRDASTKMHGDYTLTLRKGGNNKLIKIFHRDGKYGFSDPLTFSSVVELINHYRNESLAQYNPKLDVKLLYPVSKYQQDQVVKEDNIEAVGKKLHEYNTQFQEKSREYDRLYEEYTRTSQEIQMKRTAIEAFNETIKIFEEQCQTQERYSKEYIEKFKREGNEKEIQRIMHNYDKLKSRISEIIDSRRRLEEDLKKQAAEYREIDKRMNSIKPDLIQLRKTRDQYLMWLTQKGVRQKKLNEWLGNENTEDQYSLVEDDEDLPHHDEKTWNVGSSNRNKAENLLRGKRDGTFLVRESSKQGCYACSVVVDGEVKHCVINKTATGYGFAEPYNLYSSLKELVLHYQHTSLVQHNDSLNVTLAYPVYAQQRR

[3] = target: PI3Kγ (p110γ) Recombinant Human Protein (Homo sapiens (Human), UniProt P48736); experiment: PI3K-γ scintillation proximity assay; type: biochemical; conditions: 2 μM ATP, 20 μM PIP2
PI3Kγ (p110γ) Recombinant Human Protein, sequence (P48736 whole entry): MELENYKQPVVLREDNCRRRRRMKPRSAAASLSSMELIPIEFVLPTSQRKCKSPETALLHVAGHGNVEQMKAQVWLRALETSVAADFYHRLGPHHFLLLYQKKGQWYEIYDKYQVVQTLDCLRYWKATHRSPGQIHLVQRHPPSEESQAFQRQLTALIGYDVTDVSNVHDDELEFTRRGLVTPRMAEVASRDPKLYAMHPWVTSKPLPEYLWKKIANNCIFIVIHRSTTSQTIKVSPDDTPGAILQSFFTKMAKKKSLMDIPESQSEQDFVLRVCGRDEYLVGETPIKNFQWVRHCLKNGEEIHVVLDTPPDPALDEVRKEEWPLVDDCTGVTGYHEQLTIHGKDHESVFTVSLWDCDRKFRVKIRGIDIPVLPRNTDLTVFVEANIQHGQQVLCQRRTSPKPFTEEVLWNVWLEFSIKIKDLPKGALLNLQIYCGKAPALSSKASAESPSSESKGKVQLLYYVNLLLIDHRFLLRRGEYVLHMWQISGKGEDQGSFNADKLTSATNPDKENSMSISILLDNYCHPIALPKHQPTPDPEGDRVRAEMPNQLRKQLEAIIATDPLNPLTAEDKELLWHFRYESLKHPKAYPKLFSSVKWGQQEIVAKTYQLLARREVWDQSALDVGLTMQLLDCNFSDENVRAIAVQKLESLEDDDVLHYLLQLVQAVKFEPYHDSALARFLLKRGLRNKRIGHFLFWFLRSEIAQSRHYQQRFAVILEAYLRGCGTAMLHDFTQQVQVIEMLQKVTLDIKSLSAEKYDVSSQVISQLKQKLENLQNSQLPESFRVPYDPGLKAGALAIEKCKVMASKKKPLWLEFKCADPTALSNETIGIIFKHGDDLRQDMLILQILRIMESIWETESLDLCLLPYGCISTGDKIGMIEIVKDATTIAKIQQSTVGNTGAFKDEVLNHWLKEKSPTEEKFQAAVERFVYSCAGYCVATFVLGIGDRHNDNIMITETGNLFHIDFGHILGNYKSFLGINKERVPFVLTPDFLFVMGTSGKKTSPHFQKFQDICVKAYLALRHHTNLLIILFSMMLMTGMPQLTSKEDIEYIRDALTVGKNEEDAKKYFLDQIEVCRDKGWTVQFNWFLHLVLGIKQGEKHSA

[4] = Homo sapiens, THP-1, THP-1 cells

SMILES: CC(NC(=O)c1c(N)nn2cccnc12)c1cc(Cl)c2cn[nH]c2c1N1CCC[C@H](NS(C)(=O)=O)C1 (stereo partly drawn) [Example 105, 2-Amino-N-[1-(4-chloro-7-{(3S)-3-[(methylsulfonyl)amino]piperidin-1-yl}-2H-indazol-6-yl)ethyl]pyrazolo[1,5-a]pyrimidine-3-carboxamide trifluoroacetate]
- IC50 [1, 4]: < 500 nM
- IC50 [2]: < 100 nM
- IC50 [3]: < 100 nM

SMILES: COC1CCN(c2c(C(C)NC(=O)c3c(N)nn4cccnc34)cc(Cl)c3cncn23)CC1 (racemic) [Example 143, 2-Amino-N-{1-[8-chloro-5-(4-methoxypiperidin-1-yl)imidazo[1,5-a]pyridin-6-yl]ethyl}pyrazolo[1,5-a]pyrimidine-3-carboxamide]
- IC50 [1, 4]: < 1000 nM
- IC50 [2]: < 500 nM
- IC50 [3]: < 100 nM

SMILES: CC(NC(=O)c1c(N)nn2cccnc12)c1cc(Cl)c2c(Cl)cnn2c1N1CCNS(=O)(=O)CC1 (stereo not drawn) [Example 115, 2-Amino-N-{1-[3,4-dichloro-7-(1,1-dioxido-1,2,5-thiadiazepan-5-yl)pyrazolo[1,5-a]pyridin-6-yl]ethyl}pyrazolo[1,5-a]pyrimidine-3-carboxamide trifluoroacetate]
- IC50 [1, 4]: < 500 nM
- IC50 [2]: < 100 nM
- IC50 [3]: < 100 nM

SMILES: CC(NC(=O)c1c(N)nn2cccnc12)c1cc(Cl)c2c(C#N)ncn2c1N1CCS(=O)(=O)CC1 (racemic) [Example 164, 2-Amino-N-{1-[8-chloro-1-cyano-5-(1,1-dioxidothiomorpholin-4-yl)imidazo[1,5-a]pyridin-6-yl]ethyl}pyrazolo[1,5-a]pyrimidine-3-carboxamide trifluoroacetate salt]
- IC50 [1, 4]: > 1000 nM
- IC50 [2]: < 2000 nM
- IC50 [3]: < 100 nM

SMILES: CC(NC(=O)c1c(N)nn2cccnc12)c1cc(Cl)c2cncn2c1N1CCCC(C)(O)C1 (single isomer, unassigned) [Example 76B, 2-Amino-N-{1-[8-chloro-5-(3-hydroxy-3-methylpiperidin-1-yl)imidazo[1,5-a]pyridin-6-yl]ethyl}pyrazolo[1,5-a]pyrimidine-3-carboxamide trifluoroacetate]
- IC50 ([1]; THP-1 cells): < 500 nM
- IC50 [2]: < 500 nM
- IC50 [3]: < 100 nM

SMILES: CCOc1c(C(C)NC(=O)c2c(N)nn3cccnc23)cc(Cl)c2cn[nH]c12 (single isomer, unassigned) [Example 3a, 2-amino-N-[1-(4-chloro-7-ethoxy-1H-indazol-6-yl)ethyl]pyrazolo[1,5-a]pyrimidine-3-carboxamide trifluoroacetate]
- IC50 [1, 4]: < 500 nM
- IC50 [2]: < 100 nM
- IC50 [3]: < 100 nM

SMILES: CC(NC(=O)c1c(N)nn2cccnc12)c1cc(Cl)c2cncn2c1-c1cnccn1 (racemic) [Example 138, 2-Amino-N-[1-(8-chloro-5-pyrazin-2-ylimidazo[1,5-a]pyridin-6-yl)ethyl]pyrazolo[1,5-a]pyrimidine-3-carboxamide trifluoroacetate salt]
- IC50 [1, 4]: < 1000 nM
- IC50 [2]: < 500 nM
- IC50 [3]: < 100 nM

SMILES: CC(=O)N[C@H]1CCCN(c2c(C(C)NC(=O)c3c(N)nn4cccnc34)cc(Cl)c3cn[nH]c23)C1 (stereo partly drawn) [Example 104, N-(1-(7-((S)-3-Acetamidopiperidin-1-yl)-4-chloro-1H-indazol-6-yl)ethyl)-2-aminopyrazolo[1,5-a]pyrimidine-3-carboxamide trifluoroacetate]
- IC50 [1, 4]: < 500 nM
- IC50 [2]: < 100 nM
- IC50 [3]: < 100 nM

SMILES: CC(NC(=O)c1c(N)nn2cccnc12)c1cc(Cl)c2cncn2c1-c1cnn(C)c1 (racemic) [Example 140, 2-Amino-N-{1-[8-chloro-5-(1-methyl-1H-pyrazol-4-yl)imidazo[1,5-a]pyridin-6-yl]ethyl}pyrazolo[1,5-a]pyrimidine-3-carboxamide trifluoroacetate salt]
- IC50 [1, 4]: < 500 nM
- IC50 [2]: < 100 nM
- IC50 [3]: < 100 nM

SMILES: CC1(C)CN(c2c(CNC(=O)c3c(N)nn4cccnc34)cc(Cl)c3c(Cl)ncn23)CCS1(=O)=O [Example 170, 2-Amino-N-((1,8-dichloro-5-(2,2-dimethyl-1,1-dioxidothio-morpholino)imidazo [1,5-a]pyridin-6-yl)methyl) pyrazolo[1,5-a] pyrimidine-3-carboxamide trifluoroacetate salt]
- IC50 ([1]; THP-1 cells): > 1000 nM
- IC50 [2]: < 2000 nM
- IC50 [3]: < 100 nM

SMILES: CC(NC(=O)c1c(N)nn2cccnc12)c1cc(Cl)c2cncn2c1N1CCS(=O)(=O)CC1C (stereo not drawn) [Example 38B, 2-Amino-N-(1-[8-chloro-5-(3-methyl-1,1-dioxidothiomorpholin-4-yl)imidazo[1,5-a]pyridin-6-yl]ethyl)pyrazolo[1,5-a]pyrimidine-3-carboxamide trifluoroacetate salt]
- IC50 [1, 4]: < 500 nM
- IC50 [2]: < 100 nM
- IC50 [3]: < 100 nM

SMILES: CC(NC(=O)c1c(N)nn2cccnc12)c1cc(Cl)c2ccnn2c1N1CCC(C#N)CC1 (stereo not drawn) [Example 56, 2-Amino-N-(1-(4-chloro-7-(4-cyanopiperidin-1-yl)pyrazolo[1,5-a]pyridin-6-yl)ethyl)pyrazolo[1,5-a]pyrimidine-3-carboxamide trifluoroacetate]
- IC50 [1, 4]: < 500 nM
- IC50 [2]: < 100 nM
- IC50 [3]: < 100 nM

SMILES: CC1CN(c2c(CNC(=O)c3c(N)nn4cccnc34)cc(Cl)c3cncn23)CCS1(=O)=O (racemic) [Example 167, 2-Amino-N-((8-chloro-5-(2-methyl-1,1-dioxidothiomorpholino)imidazo[1,5-a]pyridin-6-yl)methyl)pyrazolo[1,5-a]pyrimidine-3-carboxamide trifluoroacetate salt]
- IC50 [1, 4]: < 500 nM
- IC50 [2]: < 500 nM
- IC50 [3]: < 100 nM

SMILES: CC(NC(=O)c1c(N)nn2cccnc12)c1cc(Cl)c2cncn2c1N1CCS(=O)(=O)CC1 (stereo not drawn) [Example 36, 2-Amino-N-(1-[8-chloro-5-(1,1-dioxidothiomorpholin-4-yl)imidazo[1,5-a]pyridin-6-yl]ethyl)pyrazolo[1,5-a]pyrimidine-3-carboxamide trifluoroacetate salt]
- IC50 [1, 4]: < 500 nM
- IC50 [2]: < 100 nM
- IC50 [3]: < 100 nM

SMILES: CC(NC(=O)c1c(N)nn2cccnc12)c1cc(Cl)c2cncn2c1N1CCC(Br)CC1 (racemic) [Example 147, 2-Amino-N-{1-[5-(4-bromopiperidin-1-yl)-8-chloroimidazo[1,5-a]pyridin-6-yl]ethyl}pyrazolo[1,5-a]pyrimidine-3-carboxamide trifluoroacetate salt]
- IC50 [1, 4]: < 500 nM
- IC50 [2]: < 500 nM
- IC50 [3]: < 100 nM

SMILES: CC(NC(=O)c1c(N)nn2cccnc12)c1cc(Cl)c2cncn2c1N1CCC[C@@H]1C (stereo partly drawn) [Example 71B, 2-Amino-N-(1-{8-chloro-5-[(2S)-2-methylpyrrolidin-1-yl]imidazo[1,5-a]pyridin-6-yl}ethyl)pyrazolo[1,5-a]pyrimidine-3-carboxamide bistrifluoroacetate]
- IC50 [1, 4]: < 500 nM
- IC50 [2]: < 100 nM
- IC50 [3]: < 100 nM

SMILES: Nc1nn2cccnc2c1C(=O)NC(c1cc(Cl)c2cncn2c1N1CCS(=O)(=O)CC1)C1CC1 (racemic) [Example 182, 2-Amino-N-((8-chloro-5-(1,1-dioxidothio-morpholino)imidazo [1,5-a]pyridin-6-yl)(cyclopropyl)methyl)pyrazolo [1,5-a] pyrimidine-3-carboxamide trifluoroacetate salt]
- IC50 [1, 4]: < 500 nM
- IC50 [2]: < 100 nM
- IC50 [3]: < 100 nM

SMILES: CC(NC(=O)c1c(N)nn2cccnc12)c1cc(Cl)c2cncn2c1C1CCCC1 (stereo not drawn) [Example 62, 2-amino-N-(1-(8-chloro-5-cyclopentylimidazo[1,5-a]pyridin-6-yl)ethyl)pyrazolo[1,5-a]pyrimidine-3-carboxamide trifluoroacetate]
- IC50 [1, 4]: < 500 nM
- IC50 [2]: < 500 nM
- IC50 [3]: < 100 nM

SMILES: CC(NC(=O)c1c(N)nn2cccnc12)c1cc(Cl)c2c(Cl)cnn2c1N1CCCS(=O)(=O)CC1 (stereo not drawn) [Example 114, 2-Amino-N-{1-[3,4-dichloro-7-(1,1-dioxido-1,4-thiazepan-4-yl)pyrazolo[1,5-a]pyridin-6-yl]ethyl}pyrazolo[1,5-a]pyrimidine-3-carboxamide trifluoroacetate]
- IC50 [1, 4]: < 500 nM
- IC50 [2]: < 100 nM
- IC50 [3]: < 100 nM

SMILES: CC(=O)N[C@H]1CCN(c2c(C(C)NC(=O)c3c(N)nn4cccnc34)cc(Cl)c3cn[nH]c23)C1 (stereo partly drawn) [Example 95, N-(1-{7-[(3S)-3-(Acetylamino)pyrrolidin-1-yl]-4-chloro-2H-indazol-6-yl}ethyl)-2-aminopyrazolo[1,5-a]pyrimidine-3-carboxamide trifluoroacetate]
- IC50 [1, 4]: < 1000 nM
- IC50 [2]: < 100 nM
- IC50 [3]: < 100 nM

SMILES: CC(NC(=O)c1c(N)nn2cccnc12)c1cc(Cl)c2cn[nH]c2c1N1CCC(S(=O)(=O)N(C)C)CC1 (stereo not drawn) [Example 93, 2-Amino-N-[1-(4-chloro-7-{4-[(dimethylamino)sulfonyl]piperidin-1-yl}-2H-indazol-6-yl)ethyl]pyrazolo[1,5-a]pyrimidine-3-carboxamide]
- IC50 [1, 4]: > 1000 nM
- IC50 [2]: < 2000 nM
- IC50 [3]: < 100 nM

SMILES: CCOc1c(C(C)NC(=O)c2c(N)nn3cccnc23)cc(Cl)c2c(Br)n(CCO)nc12 (stereo not drawn) [Example 53, 2-Amino-N-(1-(3-bromo-4-chloro-7-ethoxy-2-(2-hydroxyethyl)-2H-indazol-6-yl)ethyl)pyrazolo[1,5-a]pyrimidine-3-carboxamide]
- IC50 [1, 4]: > 1000 nM
- IC50 [2]: < 2000 nM
- IC50 [3]: < 100 nM

SMILES: CC(NC(=O)c1c(N)nn2cccnc12)c1cc(Cl)c2cncn2c1N1CCC(C)(O)CC1 (stereo not drawn) [Example 87, 2-Amino-N-(1-(8-chloro-5-(4-hydroxy-4-methylpiperidin-1-yl)imidazo[1,5-a]pyridin-6-yl)ethyl)pyrazolo[1,5-a]pyrimidine-3-carboxamide trifluoroacetate]
- IC50 [1, 4]: < 500 nM
- IC50 [2]: < 500 nM
- IC50 [3]: < 100 nM
